According to US7317037B2, “Progesterone receptor modulators comprising pyrrole-oxindole derivatives and uses thereof” (Wyeth, priority 2004, dated 2008):

Each compound was assayed against T1, progesterone receptor (PR) (Homo sapiens, UniProt P06401) (assay: T47D cell alkaline phosphatase assay (antagonist mode)). Conditions: T47D cells, antagonist mode in the presence of 1 nM progesterone, 24 hours; read-out: IC50 (nM), T47D Cell Alkaline Phosphatase Assay.
T1 construct: Effects of Progestins and Antiprogestins on Alkaline Phosphatase Activity in T47D Cells; endogenous in cells; host or cells: T47D cells
T1 sequence (P06401 1-933): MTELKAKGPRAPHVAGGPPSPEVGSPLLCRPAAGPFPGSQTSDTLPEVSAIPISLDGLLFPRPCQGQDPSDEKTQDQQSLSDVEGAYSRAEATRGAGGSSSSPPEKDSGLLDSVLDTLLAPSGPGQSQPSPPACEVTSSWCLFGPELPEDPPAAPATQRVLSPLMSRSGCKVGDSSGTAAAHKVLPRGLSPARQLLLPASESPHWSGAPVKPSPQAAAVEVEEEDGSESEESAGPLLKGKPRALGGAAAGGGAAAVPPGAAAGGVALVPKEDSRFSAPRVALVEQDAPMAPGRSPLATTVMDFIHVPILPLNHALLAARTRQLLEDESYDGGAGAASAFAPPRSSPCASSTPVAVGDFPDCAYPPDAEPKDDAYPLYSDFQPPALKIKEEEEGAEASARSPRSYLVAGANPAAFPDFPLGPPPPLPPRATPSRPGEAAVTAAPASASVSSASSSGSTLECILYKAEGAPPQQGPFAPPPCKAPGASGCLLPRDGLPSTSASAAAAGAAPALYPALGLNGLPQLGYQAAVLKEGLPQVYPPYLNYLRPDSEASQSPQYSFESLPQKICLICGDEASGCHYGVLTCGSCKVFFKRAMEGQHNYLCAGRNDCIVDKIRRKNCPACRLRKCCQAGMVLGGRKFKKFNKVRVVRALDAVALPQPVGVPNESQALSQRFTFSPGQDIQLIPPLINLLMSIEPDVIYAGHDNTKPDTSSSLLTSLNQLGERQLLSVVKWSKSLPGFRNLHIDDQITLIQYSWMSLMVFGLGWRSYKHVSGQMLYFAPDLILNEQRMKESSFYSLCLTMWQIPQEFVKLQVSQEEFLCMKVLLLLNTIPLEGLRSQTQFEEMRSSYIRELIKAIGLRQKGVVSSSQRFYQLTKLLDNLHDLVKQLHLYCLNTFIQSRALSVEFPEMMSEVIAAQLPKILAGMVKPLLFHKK
Format: cell-based
Method: A. Effects of Progestins and Antiprogestins on Alkaline Phosphatase Activity in T47D Cells (T47D Alkaline Phosphatase Assay)
Culture medium: DMEM:F12 (1:1) (GIBCO, BRL) supplemented with 5% (v/v) charcoal stripped fetal bovine serum (not heat-inactivated), 100 U/mL penicillin, 100 μg/mL streptomycin, and 2 mM GlutaMax (GIBCO, BRL).
Alkaline phosphatase assay buffer: I. 0.1M Tris-HCl, pH 9.8, containing 0.2% Triton X-100, 0.1M Tris-HCl, pH 9.8, containing 4 mM p-nitrophenyl phosphate (Sigma).
2. Cell Culture and Treatment:
Frozen T47D cells are thawed in a 37° C. water bath and diluted to 280,000 cells/mL in culture medium. To each well in a 96-well plate (Falcon, Becton Dickinson Labware), 180 μl of diluted cell suspension is added. Twenty μl of reference or test compounds diluted in the culture medium is then added to each well. When testing for progestin antagonist activity, reference antiprogestins or test compounds are added in the presence of 1 nM progesterone. The cells are incubated at 37° C. in a 5% CO2 humidified atmosphere for 24 hours. For high throughput screening, one concentration of each compound will be tested at 0.3 μg/mL. Based on an average molecular weight of 300 g/mol for the compounds in the library, the concentration is approximately 1 μM. Subsequently, active compounds will be tested in dose response assays to determine EC50 and IC50.
3. Alkaline Phosphatase Enzyme Assay:
At the end of treatment, the medium is removed from the plate. Fifty μl of assay buffer I is added to each well. The plates are shaken in a titer plate shaker for 15 min. Then 150 μl of assay buffer II is added to each well. Optical density measurements are taken at 5 min intervals for 30 min at a test wavelength of 405 nm.
4. Analysis of Dose-Response Data.
For reference and test compounds, a dose response curve is generated for dose vs. the rate of enzyme reaction (slope). Square root-transformed data are used for analysis of variance and nonlinear dose response curve fitting for both agonist and antagonist modes. Huber weighting is used to down-weight the effects of outliers. EC50 or IC50 values are calculated from the retransformed values. JMP software (SAS Institute, Inc.) is used for both one-way analysis of variance and non-4 linear dose response analysis in both single dose and dose response studies.
Progesterone and trimegestone are reference progestins and RU486 is the reference antiprogestin. All reference compounds are run in full dose response curves and the EC50 and IC50 values are calculated.

Structure (SMILES) | IC50
Cn1c(C#N)ccc1-c1ccc2c(c1F)C1(CC1)C(=O)N2 [5-(4′-fluoro-2′-oxo-1′,2′-dihydrospiro[cyclopropane-1,3′-indol]-5′yl)-1-methyl-1H-pyrrole-2-carbonitrile] | 7.8 nM
COC(=O)CN1C(=O)C(C)(C)c2cc(-c3ccc(C#N)n3C)cc(F)c21 [methyl [5-(5-cyano-1-methyl-1H-pyrrol-2-yl)-7-fluoro-3,3-dimethyl-2-oxo-2,3-dihydro-1H-indol-1-yl]acetate] | 48 nM
CCN1C(=O)C(C)(C)c2cc(-c3ccc(C#N)n3C)cc(F)c21 [5-(1-ethyl-7-fluoro-3,3-dimethyl-2-oxo-2,3-dihydro-1H-indol-5-yl)-1-methyl-1H-pyrrole-2-carbonitrile] | 29.5 nM
CN1C(=O)C(C)(C)c2cc(-c3ccc(C#N)n3C)cc(F)c21 [5-(7-Fluoro-1,3,3-trimethyl-2-oxo-2,3-dihydro-1H-indol-5-yl)-1-methyl-1H-pyrrole-2-carbonitrile] | 22.3 nM
Cn1c(C#N)ccc1-c1cc(F)c2c(c1)CC(=O)N2 [5-(7-fluoro-2-oxo-2,3-dihydro-1H-indol-5-yl)-1-methyl-1H-pyrrole-2-carbonitrile] | 109 nM
CCCN1C(=O)C(C)(C)c2cc(-c3ccc(C#N)n3C)cc(F)c21 [5-(7-fluoro-3,3-dimethyl-2-oxo-1-propyl-2,3-dihydro-1H-indol-5-yl)-1-methyl-1H-pyrrole-2-carbonitrile] | 26.5 nM
Cn1c(C#N)ccc1-c1cc(F)c2c(c1)C1(CCC1)C(=O)N2 [5-(7′-fluoro-2′-oxo-1′,2′-dihydrospiro[cyclobutane-1,3′-indol]-5′-yl)-1-methyl-1H-pyrrole-2-carbonitrile] | 2.75 nM
C#CCN1C(=O)C(C)(C)c2cc(-c3ccc(C#N)n3C)cc(F)c21 [5-(7-fluoro-3,3-dimethyl-2-oxo-1-prop-2-yn-1-yl-2,3-dihydro-1H-indol-5-yl)-1-methyl-1H-pyrrole-2-carbonitrile] | 30 nM
CCC1(CC)C(=O)Nc2c(F)cc(-c3ccc(C#N)n3C)cc21 [5-(3,3-diethyl-7-fluoro-2-oxo-2,3-dihydro-1H-indol-5-yl)-1-methyl-1H-pyrrole-2-carbonitrile] | 4.95 nM
Cn1c(C#N)ccc1-c1cc(F)c2c(c1)C1(CCCC1)C(=O)N2 [5-(7′-fluoro-2′-oxo-1′,2′-dihydrospiro[cyclopentane-1,3′-indol]-5′-yl)-1-methyl-1H-pyrrole-2-carbonitrile] | 3.2 nM
Cn1c(C#N)ccc1-c1cc(F)c2c(c1)C(C)(C)C(=O)N2C1CCCCC1 [5-(1-cyclohexyl-7-fluoro-3,3-dimethyl-2-oxo-2,3-dihydro-1H-indol-5-yl)-1-methyl-1H-pyrrole-2-carbonitrile] | 194 nM
Cn1c(C#N)ccc1-c1cc(F)c2c(c1)C(C)(C)C(=O)N2CCc1ccccc1 [5-[7-fluoro-3,3-dimethyl-2-oxo-1-(2-phenylethyl)-2,3-dihydro-1H-indol-5-yl]-1-methyl-1H-pyrrole-2-carbonitrile] | 351 nM
CC(C)CN1C(=O)C(C)(C)c2cc(-c3ccc(C#N)n3C)cc(F)c21 [5-(7-fluoro-1-isobutyl-3,3-dimethyl-2-oxo-2,3-dihydro-1H-indol-5-yl)-1-methyl-1H-pyrrole-2-carbonitrile] | 29.9 nM
Cn1c(C#N)ccc1-c1cc(F)c2c(c1)C1(CC1)C(=O)N2 [5-(7′-fluoro-2′-oxo-1′,2′-dihydrospiro[cyclopropane-1,3′-indol]-5′-yl)-1-methyl-1H-pyrrole-2-carbonitrile] | 10.8 nM
Cn1c(C#N)ccc1-c1ccc2c(c1F)C(C)(C)C(=O)N2 [5-(4-fluoro-3,3-dimethyl-2-oxo-2,3-dihydro-1H-indol-5-yl)-1-methyl-1H-pyrrole-2-carbonitrile] | 30 nM
CC1(C)C(=O)Nc2c(F)cc(-c3ccc(C#N)[nH]3)cc21 [5-(7-fluoro-3,3-dimethyl-2-oxo-2,3-dihydro-1H-indol-5-yl)-1H-pyrrole-2-carbonitrile] | 107 nM
Cn1c(C#N)ccc1-c1cc(F)c2c(c1)C(C)(C)C(=O)N2C1CCCC1 [5-(1-cyclopentyl-7-fluoro-3,3-dimethyl-2-oxo-2,3-dihydro-1H-indol-5-yl)-1-methyl-1H-pyrrole-2-carbonitrile] | 25.2 nM
CC(C)(C)OC(=O)n1c(C#N)ccc1-c1cc(F)c2c(c1)C(C)(C)C(=O)N2 [tert-butyl 2-cyano-5-(7-fluoro-3,3-dimethyl-2-oxo-2,3-dihydro-1H-indol-5-yl)-1H-pyrrole-1-carboxylate] | 125 nM
Cn1c(C#N)ccc1-c1cc(F)c2c(c1)C(C)(C)C(=O)N2Cc1ccccc1 [5-(1-benzyl-7-fluoro-3,3-dimethyl-2-oxo-2,3-dihydro-1H-indol-5-yl)-1-methyl-1H-pyrrole-2-carbonitrile] | 164 nM
C=CCN1C(=O)C(C)(C)c2cc(-c3ccc(C#N)n3C)cc(F)c21 [5-(1-allyl-7-fluoro-3,3-dimethyl-2-oxo-2,3-dihydro-1H-indol-5-yl)-1-methyl-1H-pyrrole-2-carbonitrile] | 4.5 nM
CC(C)N1C(=O)C(C)(C)c2cc(-c3ccc(C#N)n3C)cc(F)c21 [5-(7-fluoro-1-isopropyl-3,3-dimethyl-2-oxo-2,3-dihydro-1H-indol-5-yl)-1-methyl-1H-pyrrole-2-carbonitrile] | 13 nM
